According to patent US9381173B2, “Isolated stereoisomeric forms of (S)2-N(3-O-(propan 2-Ol)-1-propyl-4-hydroxybenzene)-3-phenylpropylamide” (Novaremed Ltd., priority 2011, dated 2016):

Assays:
[1] = test system: tail flick model for nociceptive pain in mice; assay: Tail flick test for nociceptive pain; type: in vivo; conditions: for Mean latency time Post-treatment: 30 minutes after administration; for Mean latency time Pre-treatment: baseline a day before
Method: In the present study the analgesic effect of the substantially pure enantiomers E1 and E2 was evaluated using the tail flick model for nociceptive pain in mice.
The experiment was performed using male ICR strain 7 weeks old mice (25-27 g) (supplied by Harlan Israel, Ltd.)
Response to pain was assessed using the tail flick method which utilizes an Ugo Basile tail flick instrument. The animal is placed and held gently on the Ugo Basile tail flick (TF) instrument surface with the tail straight back and above a photoelectric cell that served as heat source. The heat source and timer are turned on by a foot pedal press, and automatically switch off when the animal flicks its tail off the emitter. Latency is measured and analyzed as an analgesic effect.
Description of the Study: The baseline tail flick was measured a day before the experiment started. On the day of the experiment, animal body weights were first measured followed by the IP administration of the test items (vehicle, morphine, NRD 13 S E1 and E2). 30 minutes after administration of the test items, the animals were subjected to the tail-flick testing. The tail-flick experiments were followed by blood sampling of all groups. The experiment was terminated after spinal cords and brains of all groups have been collected.
Statistics and Data Evaluation: All parameters are represented as means and standard error of the mean (SEM). Data was analyzed using a two tailed, unpaired T-test to compare each treatment group to the Vehicle treated animals. A two-tailed, paired T-test was used to compare the pre-treatment and post-treatment of each treatment group. Probability values p<0.01 and p<0.05 are considered significant.

Lyn B = Lyn B (Homo sapiens, UniProt P07948); assay: Lyn B mobility-shift kinase assay (Caliper LabChip 3000); type: biochemical; conditions: 5 concentrations, duplicate wells; listed as (S,S) enantiomer
Chain of Lyn B (P07948 1-491 isoform P07948-2, species assumed): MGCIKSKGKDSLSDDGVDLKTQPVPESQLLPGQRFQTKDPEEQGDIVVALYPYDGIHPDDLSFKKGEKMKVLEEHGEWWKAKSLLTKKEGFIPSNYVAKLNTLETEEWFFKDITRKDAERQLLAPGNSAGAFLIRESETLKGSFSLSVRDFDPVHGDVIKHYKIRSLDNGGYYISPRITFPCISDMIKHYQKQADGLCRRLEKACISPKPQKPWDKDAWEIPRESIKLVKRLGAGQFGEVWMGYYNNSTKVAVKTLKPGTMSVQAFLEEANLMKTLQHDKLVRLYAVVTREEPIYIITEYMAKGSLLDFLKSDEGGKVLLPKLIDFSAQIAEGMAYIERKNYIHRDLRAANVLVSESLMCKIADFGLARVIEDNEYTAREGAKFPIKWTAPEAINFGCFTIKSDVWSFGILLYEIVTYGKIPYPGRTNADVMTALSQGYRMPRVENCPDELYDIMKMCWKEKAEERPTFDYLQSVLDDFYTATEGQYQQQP
Method: Each compound and concentration was tested in duplicate wells.
Data points are the averages of duplicate wells. Error bars represent the mean±replicate % activity.

## CC(O)COCC(Cc1ccc(O)cc1)NC(=O)CCc1ccccc1 (single isomer, unassigned) [E1]
[1]; 3 mg/kg IP
  increase of latency time between pretreatment and post treatment: not statistically significant
  reducing pain when compared to the Vehicle: not significantly active in reducing pain
[1]; 3 mg/kg IP (group 3)
  Mean latency time Post-treatment: 9.53 ± 0.85 s
  Mean latency time Pre-treatment: 7.62 ± 0.74 s
[1]; 10 mg/kg IP (groups 4, 6)
  Mean latency time Post-treatment: 10.63 ± 0.64 s
  Mean latency time Pre-treatment: 8.16 ± 0.39 s
[1]; 20 mg/kg IP (group 5)
  Mean latency time Post-treatment: 10.65 ± 0.81 s
  Mean latency time Pre-treatment: 7.58 ± 0.41 s
[1]; dose of 3 mg/kg
  conclusion: pain relief activity: significant pain relief activity only in the calculated difference
[1]; doses of 10 mg/kg and 20 mg/kg
  conclusion: reducing pain compared to the Vehicle treated group: active in reducing pain
[1]; in particular at doses of 10 and 20 mg/kg (p<0.01)
  pain relief activity by difference between pre- and post-treatment latency times vs. Vehicle: significant pain relief activity
[1]; summary statement, listed as (S,S) enantiomer
  pain analgesic in animal models of pain: effective
Lyn B
  modulation of LynB tyrosine kinase activity: had no effect
